Laboratory results: patent US20050282751A1, “Therapeutic agent for renal anemia” (Ajinomoto Co., Inc., priority 2004, published 2005)

Columns and labels:
[1] = tested on: patients with renal anemia; assay: Clinical test: side effects; assay type: in vivo, human
Method: 1.3 g of an amino acid preparation (trade name: Argi U granules, a product of Ajinomoto Pharma Co. Ltd.) (1.0 g of […] in conservative stage accompanying renal anemia, whose age, hemocytometric results and results of general biochemical tests are shown in Table 1). The administration period was at the longest 18 weeks. The amount of each of hemoglobin, BUN (blood urea nitrogen), Cre (creatinine), Fe and erythropoietin in blood was determined by methods described below.

[2] = tested on: patients with renal anemia; assay: Clinical test: Cre (creatinine), enzymatic method; assay type: in vivo, human; conditions: effective cases 1, 2, 4 and 6
Excerpt: (§1) 1.3 g of an amino acid preparation (trade name: Argi U granules, a product of Ajinomoto Pharma Co. Ltd.) (1.0 g of arginine) was orally administered in two portions everyday to each of 8 patients having an illness diagnosed as renal anemia (cases of chronic renal failure in conservative stage accompanying renal anemia, whose age, hemocytometric results and results of general biochemical tests are shown in Table 1). The administration period was at the longest 18 weeks. The amount of each of hemoglobin, BUN (blood urea nitrogen), Cre (creatinine), Fe and erythropoietin in blood was determined by methods described below.
Cre was determined by an enzymatic method (sarcosine oxidase[…]POD method).

[3] = tested on: patients with renal anemia; assay: Clinical test: erythropoietin in blood, ELISA; assay type: in vivo, human
Excerpt: as §1
Erythropoietin was determined by ELISA method.

[4] = tested on: patients with renal anemia; assay: Clinical test: hemoglobin in patients with renal anemia, oral Argi U granules; assay type: in vivo, human
Method: The administration period was at the longest 18 weeks. The amount of each of hemoglobin, BUN (blood urea nitrogen), Cre (creatinine), Fe and erythropoietin in blood was determined by methods described below.
Hemoglobin was determined with an automatic blood cell analysis device.
The hemoglobin concentration of each case determined before and after the administration of the amino acid preparation is shown in Table 2.
For typical three patients, a change in hemoglobin concentration was given as ΔHb value (amount of change of hemoglobin) calculated by deducting the hemoglobin concentration before the administration of the amino acid preparation from the hemoglobin concentration after the administration thereof in FIG. 1.

[5] = tested on: patients with renal anemia; conditions: conventional treatment with rHuEPO preparation; cited from earlier work

| Compound | side effect ([1]; 9 administration cases) | side effect ([1]; further administration of 2.6 g/day for 1 month) | renal function [2] | EPO concentration in blood relative to rHuEPO preparation treatment ([3]; L-arginine versus conventional rHuEPO treatment) | EPO concentration in blood, at the highest ([3]; after the administration of L-arginine) | Epo productivity (Epo concentration in blood) ([3]; all the effective cases) | Epo productivity (Epo concentration in blood) ([3]; the two ineffective cases) | anemia after discontinuance of administration ([4]; 2 cases in the 7 effective cases) | Hb after further administration ([4]; 2.6 g/day for 1 month, increased from 10.7 g/dl) [g/dL] | judgement of results ([4]; cases 1 to 7) | judgement of results ([4]; cases 8 and 9) | Hb after discontinuance of administration ([4]; other 3 effective cases) | EPO concentration in blood [5] |
| --- | --- | --- | --- | --- | --- | --- | --- | --- | --- | --- | --- | --- | --- |
| N=C(N)NCCC[C@H](N)C(=O)O [L-arginine] | No evident side effect | no obvious side effect | recovery of the renal function was recognized | less than ⅙ | about 20 mU/mL | increased | lowered | anemia became worse | 11.5 | effective | ineffective | Hb was not lowered |  |
| rHuEPO preparation: recombinant erythropoietin preparation, conventional treatment of renal anemia |  |  |  |  |  |  |  |  |  |  |  |  | about 130 mU/mL |
